Ends that are not written are not given here. Peptide text beside a SMILES is read from it. * marks the point of attachment. Biotin = O=C1N[C@H]2[C@H](CS[C@H]2CCCCC(=O)*)N1
Assays:
His-DDX3X^414-582 [1] = biological target: T1, His-DDX3X^414-582 (Homo sapiens, UniProt O00571); experiment: Direct-binding ELISA of biotinylated CK1 peptides on coated His-DDX3X^414-582; settings: 1 µg/well biotinylated peptide, 2.5 h, room temperature; HRP-streptavidin/ABTS, 405 nm; data normalized to δ-141 = 100%; n=3
T1 construct: contained 10 µM His-DDX3X^414-582; His; made in house; host or cells: E. coli Rosetta2 (pET28a)
Source text: According to the amino acid sequences of the N-terminal and the kinase domain of human CK1δ (UniProt entry P48730), 30 CK1δ-derived peptides were generated. In order to investigate the effects of sequence-specific differences in the sequence of CK1ε (UniProt entry P49674) compared with CK1δ, seven additional CK1ε-derived peptides were generated (Fig. S2). Each peptide consists of 15 amino acids with the first and last five amino acids always overlapping the previous and the following peptide, respectively. At the N-terminus the peptides were coupled to biotin via a four amino acid spacer sequence (SGSG). For peptide position and sequence information see Fig. S2. All peptides were pre-dissolved in DMSO (final concentration of 12.5% DMSO in the peptide stock).
His-DDX3X^414-582 protein fragment was coated onto 96-well Nunc MaxiSorp plates (NUNC, Denmark) at a final concentration of 0.01 µg/µl in 100 mM sodium carbonate buffer (pH 9.6) at 4°C overnight. Unspecific binding sites were blocked with 5% FCS in PBS. Biotinylated CK1δ- and CK1ε-derived peptides (1 µg/well) were added and incubated for 2.5 h at room temperature. DMSO (0.35%) and water were used as negative controls. Detection of the bound biotinylated peptides was performed by incubation with HRP-streptavidin (1:8000 in 0.5% FCS in PBS). Finally, plates were incubated with ABTS detection reagent [50 mM potassium phosphate buffer, pH 5.7, 5% ABTS solution (1 mg/ml), 0.05% H2O2]. Absorption was measured at 405 nm after incubation for 40 min.

His-DDX3X^414-582 [2] = biological target: T1, His-DDX3X^414-582; experiment: Fluorescence thermal shift (FTS) assay; assay type: binding; settings: 20 µM peptide, 10 µM His-DDX3X^414-582, 50 mM HEPES pH 8, SYPRO-Orange
Procedure: FTS reactions were performed in a total volume of 20 µl in 50 mM HEPES (pH 8) and contained 10 µM His-DDX3X^414-582, a final concentration of 20 µM of each indicated CK1δ- or CK1ε-derived peptide, as well as 10×SYPRO-Orange (Invitrogen). DMSO (0.35%) and water were used as controls. Measurements were performed in a LightCycler 480 device for real-time PCR (Roche) according to the manufacturer's instructions. Respective protein melting temperatures were calculated using the protein-melting evaluation software supplied by Roche.

[3] = tested on: DDX3X-stimulated CK1ε (CK1εΔC); experiment: In vitro radioactive kinase assay, DDX3X-stimulated CK1ε activity; assay type: biochemical, human; settings: 0.3 µM peptide; recombinant DDX3X and CK1εΔC; CK1εΔC alone set to 1; n=3
Procedure: (§1) Kinase assays were carried out essentially as described ([Cruciat et al., 2013]). For kinase assays, full-length DDX3X protein was expressed and purified from HEK293T cells as described for the ATPase assay. Deletion constructs were purified from E. coli. The eluted proteins were visualized using Coomassie Blue and the intensity of the protein bands was measured using ImageJ. The amounts used for kinase assays were estimated based on this staining. Where indicated, dsRNA was premixed with proteins at room temperature (RT) for 15 min before subjecting samples to radioactive kinase assays. The CK1 substrate peptide […] for the kinase assay and samples was analyzed using p81 phosphocellulose (Biomol) as described ([Zhai et al., 1992]). 0.3 µM CK1δ/ε-derived and control peptides were used ([Schacherl et al., 2015]). For mass spectrometric analyses DDX3X helicase core (His-DDX3X^168-582) as well as the C-terminal helicase domain (His-DDX3X^414-582) were in vitro phosphorylated by CK1ε. Also, reactions without addition of kinase were performed and analyzed in order to correct for false-positive results. Mass spectrometry data acquisition and analysis of trypsin-digested samples were performed at the Core Unit Mass Spectrometry and Proteomics (Ulm University) essentially as described in [Meng et al. (2016)].

CK1ε = experiment: In vitro radioactive kinase assay, CK1ε activity itself (no DDX3X stimulation); assay type: biochemical, human; settings: 0.3 µM peptide; n=3
Procedure: as §1

[4] = tested on: endogenous CK1 / CK1 sensor in HEK293T cells; experiment: CK1 FRET biosensor, microplate reader FRET/CFP ratio; assay type: cell-based, human; settings: HEK293T with CK1 sensor; for effect of transfected peptide on FRET/CFP ratio (endogenous CK1 activity): peptide transfected (Metafectene), analyzed 1.5 h after peptide transfection, n=3; for size of reduction of CK1 biosensor activity relative to CK1-specific small-molecule inhibitors or DDX3X siRNA: transfected peptide
Procedure: HEK293T cells were seeded at a density of 20,000 cells/well on 96-well black microplates (PS, μClear, clear bottom, chimney well, Greiner No. 655090). Transfection was performed as described above. Unless indicated otherwise, the respective cell populations were transfected with 50-100 ng CK1 FRET biosensor, 100 ng regulator (i.e. N-Flag DDX3X) and 1-10 ng kinase (i.e. N-Flag CK1ε). Either empty pCS2 N-Flag vector or luciferase were used to transfect the same amount of DNA in every well. Generally, the different samples were run in triplicate for each individual experiment. Owing to the varying values for the FRET/CFP ratios based on transfection efficiency, cell density and the time point of analysis, we always set the FRET/CFP ratio of cells only transfected with the CK1 sensor to 1 in order to compare individual experiments. Importantly, the individual figures with the CK1 sensor represent only experiments performed on the same 96-well plate with the same cell density, transfection efficiency and time point.
Where applicable, the small-molecule CK1 inhibitor D4476 (BioVision) was added to the cells 2-4 h prior to the analysis. For each triplicate the respective volume of D4476 (in DMSO) was added together with 1 μl Fugene HD (Promega) to 60 μl serum-free medium. The solution was mixed, incubated for 15 min and added to the cells. […] In the corresponding controls an equal amount of DMSO instead of the inhibitor was added to the medium. Analysis was performed 48-60 h after transfection on an Infinite M1000 PRO microplate reader (Tecan) by exciting CFP with a wavelength of 433 nm and measuring the resulting emission at 460-600 nm in 2 nm increments. Fluorometric spectra were background subtracted with spectra recorded from wells with non-transfected cells. Resulting FRET/CFP ratios were calculated by dividing the intensity values at the respective peaks (478 nm for CFP, 528 nm for YFP) and analyzed essentially as described ([Fritz et al., 2013]). Where indicated, CK1δ/ε-derived peptides were transfected into cells using Metafectene (Biontex) 1 hour before measurements.

[5] = tested on: DDX3X^414-582 (C-terminal helicase domain); experiment: Biolayer interferometry (BLItz); assay type: binding, human; settings: biotin-peptide 100 µM loaded on streptavidin chip; DDX3X^414-582 250 µM; 50 mM Tris-HCl pH 7.5, 10 mM NaCl; 60 s association/dissociation; three recordings
Procedure: Biolayer interferometry was measured on the BLItz system (Pall ForteBIO LLC). High Precision Streptavidin biosensor chips were loaded three times with 100 µM biotin-coupled CK1 peptides in 50 mM Tris-HCl (pH 7.5), 10 mM NaCl for 30 s, followed by a step to block free biotin binding sites with 10 µM biocytin. Association and dissociation times of DDX3X^414-582 (250 µM) were fixed at 60 s. Binding and dissociation curves were recorded three times.

T1 sequence (O00571 414-582): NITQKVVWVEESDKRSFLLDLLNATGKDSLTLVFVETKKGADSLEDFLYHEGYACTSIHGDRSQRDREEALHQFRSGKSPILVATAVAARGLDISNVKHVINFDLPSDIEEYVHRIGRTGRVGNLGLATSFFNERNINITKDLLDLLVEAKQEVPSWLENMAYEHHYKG

Molecule | Binding to His-DDX3X^414-582 (ELISA) (His-DDX3X^414-582 [1]) | Tm shift / binding by FTS, in words (His-DDX3X^414-582 [2]) | effect of peptide on CK1ε kinase activity itself (CK1ε) | binding to C-terminal helicase domain of DDX3X (BLItz) [5] | effect of peptide on DDX3X stimulation of CK1ε kinase activity [3] | effect of transfected peptide on FRET/CFP ratio (endogenous CK1 activity) [4] | size of reduction of CK1 biosensor activity relative to CK1-specific small-molecule inhibitors or DDX3X siRNA [4]
ε-41: CK1ε-derived 15mer peptide (Biotin-SGSGCVKTKHPQLHIESKF) | to a lesser extent | clearly demonstrated | without affecting kinase activity itself | – | impaired the stimulation of CK1ε kinase activity | reduced the FRET/CFP ratio | less pronounced
CC[C@H](C)[C@H](NC(=O)[C@H](CCCCN)NC(=O)[C@H](CO)NC(=O)[C@H](CCC(=O)O)NC(=O)[C@@H](NC(=O)[C@H](Cc1c[nH]cn1)NC(=O)[C@H](CC(C)C)NC(=O)[C@H](CCC(N)=O)NC(=O)[C@@H]1CCCN1C(=O)[C@H](Cc1c[nH]cn1)NC(=O)[C@H](CCCCN)NC(=O)[C@@H](NC(=O)[C@H](CCCCN)NC(=O)[C@@H](NC(=O)[C@H](CS)NC(=O)CNC(=O)[C@H](CO)NC(=O)CNC(=O)[C@H](CO)NC(=O)CCCC[C@@H]1SC[C@@H]2NC(=O)N[C@@H]21)C(C)C)[C@@H](C)O)[C@@H](C)CC)C(=O)O [δ-41] (HELM PEPTIDE1{[O=C1N[C@H]2[C@H](CS[C@H]2CCCCC(=O)[*:2])N1].S.G.S.G.C.V.K.T.K.H.P.Q.L.H.I.E.S.K.I}$$$$V2.0; C-terminus assumed) | to a lesser extent | clearly demonstrated | without affecting kinase activity itself | no binding | impaired the stimulation of CK1ε kinase activity | reduced the FRET/CFP ratio | less pronounced
δ-141: CK1δ-derived 15mer peptide (Biotin-SGSGKGNLVYIIDFGLAKK) | strongest binding | – | – | – | – | – | –
ε-61: CK1ε-derived 15mer peptide (Biotin-SGSGGGVGIPSIKWCGAEG) | strongest binding | – | – | – | – | – | –
ε-241: CK1ε-derived 15mer peptide (Biotin-SGSGCKGYPSEFSTYLNFC; cysteine pairing not given here) | strongest binding | – | – | – | – | – | –
δ-101: CK1δ-derived 15mer peptide, negative control (Biotin-SGSGSLKTVLLLADQMISR) | showed no binding | did not cause Tm shifts | – | – | did not interfere with the DDX3X stimulation | – | –

More lines, main results first:

Binding to His-DDX3X^414-582 (ELISA) (His-DDX3X^414-582 [1]) | Tm shift / binding by FTS, in words (His-DDX3X^414-582 [2]) | effect of peptide on CK1ε kinase activity itself (CK1ε) | binding to C-terminal helicase domain of DDX3X (BLItz) [5] | Molecule | effect of peptide on DDX3X stimulation of CK1ε kinase activity [3] | effect of transfected peptide on FRET/CFP ratio (endogenous CK1 activity) [4] | size of reduction of CK1 biosensor activity relative to CK1-specific small-molecule inhibitors or DDX3X siRNA [4]
strongest binding | – | – | – | δ-91: CK1δ-derived 15mer peptide (Biotin-SGSGDLFNFCSRKFSLKTV) | – | – | –
to a lesser extent | – | – | – | δ-231: CK1δ-derived 15mer peptide (Biotin-SGSGKKMSTPIEVLCKGYP) | – | – | –
non-binding | did not cause Tm shifts | – | – | biotin-SGSG-APPTPLTPTSHTANT [δ-341] | – | but not ε-1 or the negative control peptide δ-341, reduced the FRET/CFP ratio | –
strongest binding | – | – | – | δ-31: CK1δ-derived 15mer peptide (Biotin-SGSGAGEEVAIKLECVKTK) | – | – | –
to a lesser extent | clearly demonstrated | without affecting kinase activity itself | strongly interacted with δ-1 | CC[C@H](C)[C@H](NC(=O)[C@H](CCCCN)NC(=O)[C@H](CCCNC(=N)N)NC(=O)CNC(=O)[C@H](CC(C)C)NC(=O)[C@H](CCCNC(=N)N)NC(=O)[C@H](Cc1ccc(O)cc1)NC(=O)[C@H](CCCNC(=N)N)NC(=O)[C@H](CC(N)=O)NC(=O)CNC(=O)[C@@H](NC(=O)[C@H](CCCNC(=N)N)NC(=O)[C@H](CC(C)C)NC(=O)[C@H](CCC(=O)O)NC(=O)[C@H](CCSC)NC(=O)CNC(=O)[C@H](CO)NC(=O)CNC(=O)[C@H](CO)NC(=O)CCCC[C@@H]1SC[C@@H]2NC(=O)N[C@@H]21)C(C)C)C(=O)O [δ-1] (HELM PEPTIDE1{[O=C1N[C@H]2[C@H](CS[C@H]2CCCCC(=O)[*:2])N1].S.G.S.G.M.E.L.R.V.G.N.R.Y.R.L.G.R.K.I}$$$$V2.0; C-terminus assumed) | impaired the stimulation of CK1ε kinase activity | reduced the FRET/CFP ratio | less pronounced

— article PMC5818060 (Journal of Cell Science, 2018)
